In ChEMBL document CHEMBL4138146, “A Schmidt rearrangement-mediated synthesis of novel tetrahydro-benzo[1,4]diazepin-5-ones as potential anticancer and antiprotozoal agents” (Eur J Med Chem, 2017):

Key:
Type in all cases: functional
TK-10 = test: Growth inhibition of human TK10 cells assessed as cell growth at 10^-8 M incubated for 48 hrs by sulforhodamine B assay relative to control; settings: TK-10, 48 h, read-out: Activity
Hs-578T = test: Growth inhibition of human Hs 578T cells assessed as cell growth at 10^-4 M incubated for 48 hrs by sulforhodamine B assay relative to control; settings: read-out: Activity
A549 = test: Growth inhibition of human A549/ATCC cells assessed as cell growth at 10^-5 M incubated for 48 hrs by sulforhodamine B assay relative to control; settings: A549, 48 h, read-out: Activity
OVCAR-8 [1] = test: Growth inhibition of human OVCAR8 cells assessed as cell growth at 10^-4 M incubated for 48 hrs by sulforhodamine B assay relative to control; settings: OVCAR-8, 48 h, read-out: Activity
SW-620 [2] = test: Growth inhibition of human SW620 cells assessed as cell growth at 10^-8 M incubated for 48 hrs by sulforhodamine B assay relative to control; settings: SW-620, 48 h, read-out: Activity
SK-MEL-28 = test: Growth inhibition of human SK-MEL-28 cells assessed as cell growth at 10^-8 M incubated for 48 hrs by sulforhodamine B assay relative to control; settings: SK-MEL-28, 48 h, read-out: Activity
HCT-116 = test: Growth inhibition of human HCT116 cells assessed as cell growth at 10^-5 M incubated for 48 hrs by sulforhodamine B assay relative to control; settings: HCT-116, 48 h, read-out: Activity
HOP-92 [3] = test: Growth inhibition of human HOP92 cells assessed as cell growth at 10^-8 M incubated for 48 hrs by sulforhodamine B assay relative to control; settings: HOP-92, 48 h, read-out: Activity
SNB-75 = test: Growth inhibition of human SNB75 cells assessed as cell growth at 10^-7 M incubated for 48 hrs by sulforhodamine B assay relative to control; settings: SNB-75, 48 h, read-out: Activity
MDA-MB-435 = test: Growth inhibition of human MDA-MB-435 cells assessed as cell growth at 10^-7 M incubated for 48 hrs by sulforhodamine B assay relative to control; settings: MDA-MB-435, 48 h, read-out: Activity
OVCAR-4 = test: Growth inhibition of human OVCAR4 cells assessed as cell growth at 10^-8 M incubated for 48 hrs by sulforhodamine B assay relative to control; settings: OVCAR-4, 48 h, read-out: Activity
T47D = test: Growth inhibition of human T47D cells assessed as cell growth at 10^-7 M incubated for 48 hrs by sulforhodamine B assay relative to control; settings: read-out: Activity
SNB-19 = test: Growth inhibition of human SNB19 cells assessed as cell growth at 10^-8 M incubated for 48 hrs by sulforhodamine B assay relative to control; settings: SNB-19, 48 h, read-out: Activity
NCI-H226 = test: Growth inhibition of human NCI-H226 cells assessed as cell growth at 10^-6 M incubated for 48 hrs by sulforhodamine B assay relative to control; settings: NCI-H226, 48 h, read-out: Activity
MCF7 = test: Growth inhibition of human MCF7 cells assessed as cell growth at 10^-7 M incubated for 48 hrs by sulforhodamine B assay relative to control; settings: MCF7, 48 h, read-out: Activity
UO-31 = test: Growth inhibition of human UO31 cells assessed as cell growth at 10^-5 M incubated for 48 hrs by sulforhodamine B assay relative to control; settings: UO-31, 48 h, read-out: Activity
SF-295 = test: Growth inhibition of human SF295 cells assessed as cell growth at 10^-6 M incubated for 48 hrs by sulforhodamine B assay relative to control; settings: SF-295, 48 h, read-out: Activity
M14 [4] = test: Growth inhibition of human M14 cells assessed as cell growth at 10^-8 M incubated for 48 hrs by sulforhodamine B assay relative to control; settings: M14, 48 h, read-out: Activity
UACC-257 = test: Growth inhibition of human UACC257 cells assessed as cell growth at 10^-6 M incubated for 48 hrs by sulforhodamine B assay relative to control; settings: UACC-257, 48 h, read-out: Activity
EKVX = test: Growth inhibition of human EKVX cells assessed as cell growth at 10^-5 M incubated for 48 hrs by sulforhodamine B assay relative to control; settings: read-out: Activity
HOP-62 = test: Growth inhibition of human HOP62 cells assessed as cell growth at 10^-4 M incubated for 48 hrs by sulforhodamine B assay relative to control; settings: HOP-62, 48 h, read-out: Activity
786-0 [5] = test: Growth inhibition of human 786-0 cells assessed as cell growth at 10^-7 M incubated for 48 hrs by sulforhodamine B assay relative to control; settings: 786-0, 48 h, read-out: Activity
OVCAR-8 [6] = test: Growth inhibition of human OVCAR8 cells assessed as cell growth at 10^-6 M incubated for 48 hrs by sulforhodamine B assay relative to control; settings: OVCAR-8, 48 h, read-out: Activity
HOP-92 [7] = test: Growth inhibition of human HOP92 cells assessed as cell growth at 10^-5 M incubated for 48 hrs by sulforhodamine B assay relative to control; settings: HOP-92, 48 h, read-out: Activity
SK-MEL-2 = test: Growth inhibition of human SK-MEL-2 cells assessed as cell growth at 10^-5 M incubated for 48 hrs by sulforhodamine B assay relative to control; settings: SK-MEL-2, 48 h, read-out: Activity
SW-620 [8] = test: Growth inhibition of human SW620 cells assessed as cell growth at 10^-7 M incubated for 48 hrs by sulforhodamine B assay relative to control; settings: SW-620, 48 h, read-out: Activity
NCI-H522 = test: Growth inhibition of human NCI-H522 cells assessed as cell growth at 10^-6 M incubated for 48 hrs by sulforhodamine B assay relative to control; settings: NCI-H522, 48 h, read-out: Activity
M14 [9] = test: Growth inhibition of human M14 cells assessed as cell growth at 10^-4 M incubated for 48 hrs by sulforhodamine B assay relative to control; settings: M14, 48 h, read-out: Activity
786-0 [10] = test: Growth inhibition of human 786-0 cells assessed as cell growth at 10^-6 M incubated for 48 hrs by sulforhodamine B assay relative to control; settings: 786-0, 48 h, read-out: Activity
A498 = test: Growth inhibition of human A498 cells assessed as cell growth at 10^-7 M incubated for 48 hrs by sulforhodamine B assay relative to control; settings: A498, 48 h, read-out: Activity
ACHN = test: Growth inhibition of human ACHN cells assessed as cell growth at 10^-7 M incubated for 48 hrs by sulforhodamine B assay relative to control; settings: read-out: Activity
M14 [11] = test: Growth inhibition of human M14 cells assessed as cell growth at 10^-5 M incubated for 48 hrs by sulforhodamine B assay relative to control; settings: M14, 48 h, read-out: Activity
RXF 393 [12] = test: Growth inhibition of human RXF393 cells assessed as cell growth at 10^-4 M incubated for 48 hrs by sulforhodamine B assay relative to control; settings: RXF 393, 48 h, read-out: Activity
RXF 393 [13] = test: Growth inhibition of human RXF393 cells assessed as cell growth at 10^-7 M incubated for 48 hrs by sulforhodamine B assay relative to control; settings: RXF 393, 48 h, read-out: Activity

## CCCCOc1nc2ccccc2cc1C1CNC(=O)c2ccccc2N1 (centres undefined)
TK-10
  growth at 0.01 µM: 75%
Hs-578T
  growth at 100 µM: -25%
A549
  growth at 10 µM: 14%
OVCAR-8 [1]
  growth at 100 µM: -45%
SW-620 [2]
  growth at 0.01 µM: 96%
SK-MEL-28
  growth at 0.01 µM: 103%
HCT-116
  growth at 10 µM: -19%
HOP-92 [3]
  growth at 0.01 µM: 76%
SNB-75
  growth at 0.1 µM: 89%
MDA-MB-435
  growth at 0.1 µM: 98%
OVCAR-4
  growth at 0.01 µM: 92%
T47D
  growth at 0.1 µM: 99%
SNB-19
  growth at 0.01 µM: 96%
NCI-H226
  growth at 1 µM: 92%
MCF7
  growth at 0.1 µM: 91%
UO-31
  growth at 10 µM: 31%
SF-295
  growth at 1 µM: 59%
M14 [4]
  growth at 0.01 µM: 96%
UACC-257
  growth at 1 µM: 70%
EKVX
  growth at 10 µM: 31%
HOP-62
  growth at 100 µM: -59%
786-0 [5]
  growth at 0.1 µM: 100%
OVCAR-8 [6]
  growth at 1 µM: 94%
HOP-92 [7]
  growth at 10 µM: 21%
SK-MEL-2
  growth at 10 µM: 33%
SW-620 [8]
  growth at 0.1 µM: 96%
NCI-H522
  growth at 1 µM: 65%
M14 [9]
  growth at 100 µM: -52%
786-0 [10]
  growth at 1 µM: 90%
A498
  growth at 0.1 µM: 62%
ACHN
  growth at 0.1 µM: 98%
M14 [11]
  growth at 10 µM: 4%
RXF 393 [12]
  growth at 100 µM: -58%
RXF 393 [13]
  growth at 0.1 µM: 86%
